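1) Cells in 96-well plates. 2) Compound, 48 h, 5 concentrations. 3) Linear interpolation between surrounding doses. 4) Unreached endpoint = highest concentration. At the TGI there is no net growth.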
Columns and labels:
Assay in all cases: NCI-60 cell line screen, 48 h
HCT-15 colon = tested on: HCT-15 colon
NCI-H226 lung = tested on: NCI-H226 lung
CAKI-1 renal = tested on: CAKI-1 renal
DU-145 prostate = tested on: DU-145 prostate
SK-MEL-2 melanoma = tested on: SK-MEL-2 melanoma
T-47D breast = tested on: T-47D breast
MALME-3M melanoma = tested on: MALME-3M melanoma
TK-10 renal = tested on: TK-10 renal
NCI-H522 lung = tested on: NCI-H522 lung
SW-620 colon = tested on: SW-620 colon
SNB-19 CNS = tested on: SNB-19 CNS
MOLT-4 leukemia = tested on: MOLT-4 leukemia
LOX IMVI melanoma = tested on: LOX IMVI melanoma
SK-OV-3 ovarian = tested on: SK-OV-3 ovarian
SN12C renal = tested on: SN12C renal
786-0 renal = tested on: 786-0 renal
NCI-H460 lung = tested on: NCI-H460 lung
SF-539 CNS = tested on: SF-539 CNS
HT29 colon = tested on: HT29 colon
COLO 205 colon = tested on: COLO 205 colon
SF-268 CNS = tested on: SF-268 CNS
U251 CNS = tested on: U251 CNS
SNB-75 CNS = tested on: SNB-75 CNS
HOP-92 NSCLC = tested on: HOP-92 NSCLC
OVCAR-8 ovarian = tested on: OVCAR-8 ovarian
HCC-2998 colon = tested on: HCC-2998 colon
RPMI-8226 leukemia = tested on: RPMI-8226 leukemia
MDA-MB-231 breast = tested on: MDA-MB-231 breast
MDA-N = tested on: MDA-N
NCI/ADR-RES ovarian = tested on: NCI/ADR-RES ovarian
HL-60(TB) leukemia = tested on: HL-60(TB) leukemia
NCI-H23 lung = tested on: NCI-H23 lung
SF-295 CNS = tested on: SF-295 CNS
SK-MEL-28 melanoma = tested on: SK-MEL-28 melanoma
IGROV1 ovarian = tested on: IGROV1 ovarian
OVCAR-5 ovarian = tested on: OVCAR-5 ovarian
HS 578T breast = tested on: HS 578T breast
OVCAR-3 ovarian = tested on: OVCAR-3 ovarian
UACC-62 melanoma = tested on: UACC-62 melanoma
OVCAR-4 ovarian = tested on: OVCAR-4 ovarian
A549 NSCLC = tested on: A549 NSCLC
HCT-116 colon = tested on: HCT-116 colon
CCRF-CEM leukemia = tested on: CCRF-CEM leukemia
EKVX NSCLC = tested on: EKVX NSCLC
BT-549 breast = tested on: BT-549 breast
M14 melanoma = tested on: M14 melanoma
UACC-257 melanoma = tested on: UACC-257 melanoma
SK-MEL-5 melanoma = tested on: SK-MEL-5 melanoma
UO-31 renal = tested on: UO-31 renal
PC-3 prostate = tested on: PC-3 prostate
ACHN renal = tested on: ACHN renal
MDA-MB-435 = tested on: MDA-MB-435
A498 renal = tested on: A498 renal
KM12 colon = tested on: KM12 colon
MCF7 breast = tested on: MCF7 breast

Compound: COc1ccc2c(c1OC)C(C(Cl)(Cl)Cl)N1CCc3cc4c(cc3C1=C2)OCO4 (stereo not given)
- TGI (HCT-15 colon): > 100 µM
- TGI (NCI-H226 lung): 70.1 µM
- TGI (CAKI-1 renal): > 100 µM
- TGI (DU-145 prostate): 84.7 µM
- TGI (SK-MEL-2 melanoma): 39.4 µM
- TGI (T-47D breast): > 100 µM
- TGI (MALME-3M melanoma): 37.3 µM
- TGI (TK-10 renal): > 100 µM
- TGI (NCI-H522 lung): 35.1 µM
- TGI (SW-620 colon): > 100 µM
- TGI (SNB-19 CNS): > 100 µM
- TGI (MOLT-4 leukemia): 80.9 µM
- TGI (LOX IMVI melanoma): > 100 µM
- TGI (SK-OV-3 ovarian): 85.9 µM
- TGI (SN12C renal): > 100 µM
- TGI (786-0 renal): 55.5 µM
- TGI (NCI-H460 lung): 55.3 µM
- TGI (SF-539 CNS): > 100 µM
- TGI (HT29 colon): 68.4 µM
- TGI (COLO 205 colon): 20.8 µM
- TGI (SF-268 CNS): 91.1 µM
- TGI (U251 CNS): 43.1 µM
- TGI (SNB-75 CNS): > 100 µM
- TGI (HOP-92 NSCLC): 84.7 µM
- TGI (OVCAR-8 ovarian): > 100 µM
- TGI (HCC-2998 colon): 29.5 µM
- TGI (RPMI-8226 leukemia): 11.3 µM
- TGI (MDA-MB-231 breast): > 100 µM
- TGI (MDA-N): 41 µM
- TGI (NCI/ADR-RES ovarian): > 100 µM
- TGI (HL-60(TB) leukemia): 45.2 µM
- TGI (NCI-H23 lung): > 100 µM
- TGI (SF-295 CNS): > 100 µM
- TGI (SK-MEL-28 melanoma): 27.8 µM
- TGI (IGROV1 ovarian): 98.2 µM
- TGI (OVCAR-5 ovarian): > 100 µM
- TGI (HS 578T breast): > 100 µM
- TGI (OVCAR-3 ovarian): 65.8 µM
- TGI (UACC-62 melanoma): 30.5 µM
- TGI (OVCAR-4 ovarian): 69 µM
- TGI (A549 NSCLC): > 100 µM
- TGI (HCT-116 colon): 27.9 µM
- TGI (CCRF-CEM leukemia): 62.2 µM
- TGI (EKVX NSCLC): > 100 µM
- TGI (BT-549 breast): 8.63 µM
- TGI (M14 melanoma): > 100 µM
- TGI (UACC-257 melanoma): 62.9 µM
- TGI (SK-MEL-5 melanoma): 15.4 µM
- TGI (UO-31 renal): > 100 µM
- TGI (PC-3 prostate): > 100 µM
- TGI (ACHN renal): 65.1 µM
- TGI (MDA-MB-435): 27 µM
- TGI (A498 renal): > 100 µM
- TGI (KM12 colon): 20.3 µM
- TGI (MCF7 breast): > 100 µM
